# Test results reported in the supplement of paper PMC4314810.
# ± gives the standard deviation of the averaged measurements.
# Tested on: MCF7
# Assay: HRG-induced Akt activation (dPAkt = log2 pAkt/Akt HRG-stimulated minus log2 pAkt/Akt basal) (log2 ratio difference); higher = stronger HRG-induced Akt(T308) phosphorylation
# Conditions: miRNA mimic concentration 10 nM; time after transfection 72 h; heregulin 10 ng/ml; stimulation time 1 h
# Method in brief: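 MCF7 cells were plated […] in 96-well plates and transfected in two biological replicates with a library of 879 miRNA mimics (10 nM final) using Lipofectamine RNAiMax; 72 h later they were stimulated for 1 h with 10 ng/ml heregulin-beta1 or left unstimulated. After fixation in 4% PFA, phospho-Akt(T308) and total Akt were measured by In-Cell Western on an Odyssey, with signals corrected for column-wise fixation decay. Heregulin-induced Akt activation is the stimulated minus unstimulated value of the log ratio of phospho-Akt to total Akt, averaged over replicates. That log ratio is log2(pAkt/Akt).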
row,Sequence,HRG-induced Akt activation (log2)
1,UAUGUCUGCUGACCAUCACCUU,2.316 ± 0.0055
2,CACUAGAUUGUGAGCUCCUGGA,1.69 ± 0.57
3,AACAUUCAUUGUUGUCGGUGGGU,2.236 ± 0.017
4,UAGUACCAGUACCUUGUGUUCA,1.19 ± 0.3
5,UACCCUGUAGAACCGAAUUUGUG,1.99 ± 0.17
6,CACACACUGCAAUUACUUUUGC,1.53 ± 0.053
7,CAGGUCGUCUUGCAGGGCUUCU,1.44 ± 0.68
8,CUGCCCUGGCCCGAGGGACCGA,1.21 ± 0.096
9,UUCUCCAAAAGAAAGCACUUUCUG,2.57 ± 0.12
10,AUGGUACCCUGGCAUACUGAGU,1.62 ± 0.59
11,CUUUCAGUCGGAUGUUUACAGC,1.62 ± 0.098
12,ACGUUGGCUCUGGUGGUG,1.17 ± 0.014
13,UGGUAGACUAUGGAACGUAGG,0.953 ± 0.95
14,UUCCCUUUGUCAUCCUUCGCCU,1 ± 0.3
15,AAACAAACAUGGUGCACUUCUU,1.48 ± 0.08
16,UUUCCGGCUCGCGUGGGUGUGU,1.627 ± 0.015
17,UUUGGCACUAGCACAUUUUUGCU,1.535 ± 0.007
18,UGCCUGUCUACACUUGCUGUGC,1.34 ± 0.089
19,UGGACGGAGAACUGAUAAGGGU,1.48 ± 0.21
20,GCAAAGCACACGGCCUGCAGAGA,1.27 ± 0.08
21,UCCCUGAGACCCUUUAACCUGUGA,1.77 ± 0.13
22,CAGUGCAAUGAUAUUGUCAAAGC,1.07 ± 0.53
23,AAGCUGCCAGUUGAAGAACUGU,1.23 ± 0.26

row,Sequence,HRG-induced Akt activation (log2)
1,AAAAGCUGGGUUGAGAGGGU,1.89 ± 0.17
2,AGAGAAGAAGAUCAGCCUGCA,1.08 ± 0.5
3,UUUGGCAAUGGUAGAACUCACACU,1.75 ± 0.06
4,AGUAUGUUCUUCCAGGACAGAAC,1.83 ± 0.087
5,AGGUUACCCGAGCAACUUUGCAU,0.732 ± 0.16
6,AGCUGGUGUUGUGAAUCAGGCCG,1.87 ± 0.075
7,AAACCUGUGUUGUUCAAGAGUC,0.883 ± 0.023
8,UGAUUGGUACGUCUGUGGGUAG,2.35 ± 0.031
9,UAAUUUUAUGUAUAAGCUAGU,1.79 ± 0.15
10,AUGUAUGUGUGCAUGUGCAUG,1.62 ± 0.4
11,AGCUCGGUCUGAGGCCCCUCAGU,0.753 ± 0.54
12,GAAGGCGCUUCCCUUUAGAGCG,1.1 ± 0.5
13,UGUCACUCGGCUCGGCCCACUAC,1.17 ± 0.18
14,UUCAUUCGGCUGUCCAGAUGUA,1.48 ± 0.1
15,AGGCAGUGUAUUGUUAGCUGGC,1.91 ± 0.036
16,AAAAUGGUGCCCUAGUGACUACA,1.9 ± 0.43
17,CUCUAGAGGGAAGCACUUUCUG,2.15 ± 0.078
18,GUGAAUUACCGAAGGGCCAUAA,1.03 ± 0.12
19,AAAAGUAAUUGUGGUUUUUGCC,1.07 ± 0.085
20,AUCAUAGAGGAAAAUCCACGU,2.13 ± 0.46
21,UCUCACACAGAAAUCGCACCCGU,1.92 ± 0.12
22,GCCCAAAGGUGAAUUUUUUGGG,1.33 ± 0.1
23,AGACCUGGCCCAGACCUCAGC,1.51 ± 0.39

row,Sequence,HRG-induced Akt activation (log2)
1,UCGGGGAUCAUCAUGUCACGAGA,1.93 ± 0.17
2,AAAAGUAAUUGCGGUCUUUGGU,1.32 ± 0.034
3,ACAAAGUGCUUCCCUUUAGAGU,1.75 ± 0.12
4,UUCAUUUGGUAUAAACCGCGAUU,2.42 ± 0.062
5,GCUACUUCACAACACCAGGGCC,1.67 ± 0.3
6,GUCAUACACGGCUCUCCUCUCU,0.922 ± 0.81
7,AAGUGCCUCCUUUUAGAGUGUU,0.982 ± 0.27
8,CACCCGGCUGUGUGCACAUGUGC,1.53 ± 0.48
9,AUUCUAAUUUCUCCACGUCUUU,1.44 ± 0.29
10,UGGUGGGCACAGAAUCUGGACU,1.74 ± 0.12
11,CAGGAUGUGGUCAAGUGUUGUU,1.41 ± 0.093
12,UGUCUUACUCCCUCAGGCACAU,1.47 ± 0.054
13,CAAGUCUUAUUUGAGCACCUGUU,1.94 ± 0.12
14,UAUGUAACACGGUCCACUAACC,1.73 ± 0.081
15,CUAAUAGUAUCUACCACAAUAAA,1.84 ± 0.24
16,CAAACCACACUGUGGUGUUAGA,1.09 ± 0.76
17,UUGAAAGGCUAUUUCUUGGUC,2.39 ± 0.036
18,GUGUUAAUUAAACCUCUAUUUAC,1.76 ± 0.034
19,AAUUGCACUUUAGCAAUGGUGA,1.14 ± 0.04
20,UGAGGCAGUAGAUUGAAU,1.49 ± 0.26
21,CAGUGCAAUGAUGAAAGGGCAU,1.31 ± 0.024
22,CCCUGUGCCCGGCCCACUUCUG,1.19 ± 0.05
23,CCUGCAGCGACUUGAUGGCUUCC,0.841 ± 0.6
